For 13 compounds, TGI and GI50 results are on record in PubChem BioAssay (NCI).

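Following 48 hours of exposure in 96-well plates, responses at five concentrations were used to interpolate endpoints linearly. GI50 marks 50% less growth. Definition used: TGI = concentration required for complete inhibition of growth.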 Some results are limits rather than exact numbers.

Test systems include NCI-H522 lung; ACHN renal; 786-0 renal; OVCAR-5 ovarian; SF-539 CNS; KM12 colon; COLO 205 colon; SNB-75 CNS; RXF 393 renal.
What all share (assay): DTP human tumour cell line panel, 48 h

In general, TGI refers to the concentration at which net growth stops. As for `COc1cc(C(=O)C/C(CCC(=O)Nc2ccc(Cl)cc2C)=N/NC(=O)C(N)=O)ccc1O`, the TGI with NCI-H522 lung, with ACHN renal, in the test with 786-0 renal, with OVCAR-5 ovarian, in the test on SF-539 CNS and with KM12 colon was over 100 µM throughout. This compound also gave a TGI in the test with COLO 205 colon of over 100 µM.

`O=C(O)CC12C3C4C5C3C1C5C42` (stereo unspecified): the TGI with NCI-H522 lung, in the test with ACHN renal, in the test on 786-0 renal, in the test on OVCAR-5 ovarian, in the test on SNB-75 CNS and with SF-539 CNS was over 100 µM in each case. Besides, the TGI with KM12 colon and in the test with COLO 205 colon was over 100 µM each time.

As for `CCc1nc(N)nc(C(=O)NCCNC(=O)c2nc(N)nc(CC)c2C)c1C`, the TGI with ACHN renal, with 786-0 renal, in the test with OVCAR-5 ovarian, in the test on SNB-75 CNS, with SF-539 CNS and with RXF 393 renal was over 100 µM each time. This compound gave a TGI with KM12 colon of over 100 µM.

As for `Cc1ccc(/C=C/C(=O)c2sc(-c3cccnc3)nc2C)cc1`, the TGI in the test with NCI-H522 lung, in the test with ACHN renal, with 786-0 renal, with OVCAR-5 ovarian, with SF-539 CNS and in the test on RXF 393 renal was over 100 µM in each case. Besides, the TGI with KM12 colon and in the test with COLO 205 colon was over 100 µM in each case.

`CC(=O)/C(=C\C1=CCCO1)C(=O)Nc1ccccc1C`: the TGI in the test on NCI-H522 lung, in the test with ACHN renal, in the test with 786-0 renal, in the test on OVCAR-5 ovarian, in the test with SF-539 CNS and in the test with RXF 393 renal was over 100 µM each time. This compound also had a TGI in the test with KM12 colon of over 100 µM.

Take `COC(=O)C12CC3CC(C1)CC(C(=O)OC)(C3)C2`: the TGI in the test with NCI-H522 lung, with ACHN renal, in the test with 786-0 renal, with OVCAR-5 ovarian, in the test on SNB-75 CNS and in the test with SF-539 CNS was over 100 µM throughout. In the test with KM12 colon, this compound returned a total growth inhibition concentration (TGI) of over 100 µM.

As a reminder, the GI50 is the concentration giving 50% growth inhibition. With `CC[O-].CC[O-].O=C1C(c2ccccc2)=C([O-])c2ccccc21.O=C1C(c2ccccc2)=C([O-])c2ccccc21.[Ti+4]`, the GI50 in the test with NCI-H522 lung, with ACHN renal, in the test with 786-0 renal, in the test with OVCAR-5 ovarian, with SNB-75 CNS and in the test on SF-539 CNS was over 100 µM throughout. For the same compound, the GI50 was 62.9 µM with KM12 colon and over 100 µM with COLO 205 colon. Further, the TGI in the test on NCI-H522 lung, with ACHN renal, with 786-0 renal, in the test on OVCAR-5 ovarian, in the test on SNB-75 CNS and in the test on SF-539 CNS was over 100 µM throughout. The TGI with KM12 colon and in the test on COLO 205 colon was over 100 µM each time.

Turning to `CN(C)CC/C(=N\Nc1ccccc1)c1ccccc1`, the TGI in the test on 786-0 renal is 51.2 µM; in the test with OVCAR-5 ovarian it was 30.9 µM; in the test with SF-539 CNS, 32.6 µM; in the test with RXF 393 renal it was over 100 µM; in the test on KM12 colon it was 18.3 µM; in the test with COLO 205 colon it was 33.5 µM.

As to `CC/C(=C(/CC)c1ccc(O)cc1)c1ccc([O-])cc1.CC/C(=C(/CC)c1ccc(O)cc1)c1ccc([O-])cc1.O=C([CH-]C(=O)c1ccccc1)c1ccccc1.O=C([CH-]C(=O)c1ccccc1)c1ccccc1.[Ti+4]`, the GI50 was 20.5 µM in the test on ACHN renal; 13.7 µM with 786-0 renal; 23.9 µM in the test with OVCAR-5 ovarian; 10.7 µM in the test on RXF 393 renal; 12.5 µM in the test with KM12 colon; 33.8 µM in the test with COLO 205 colon. Also, the total growth inhibition concentration (TGI) in the test with ACHN renal was 72.8 µM; in the test with 786-0 renal, 33.1 µM; in the test on OVCAR-5 ovarian, 46.7 µM; in the test with RXF 393 renal, 25.7 µM; with KM12 colon, 35.1 µM; with COLO 205 colon it was over 100 µM.

`Cc1ccc(NC(=O)CCC/C(CC(=O)c2ccc(Br)cc2)=N/NC(=O)CC#N)cc1`: the TGI in the test with ACHN renal, in the test with 786-0 renal, in the test on OVCAR-5 ovarian, in the test on SNB-75 CNS, in the test with RXF 393 renal and in the test with KM12 colon was over 100 µM each time. This compound also registered a TGI in the test on COLO 205 colon of over 100 µM.

For `O=C1c2ccccc2C2(O)NC(=S)N(c3ccccc3)C12O` (stereo unspecified), the TGI in the test on NCI-H522 lung, in the test with 786-0 renal, in the test on OVCAR-5 ovarian, in the test on SNB-75 CNS, in the test with SF-539 CNS and in the test on KM12 colon was over 100 µM throughout. The same compound displayed a TGI with COLO 205 colon of over 100 µM.

For `COC(=O)C(=O)C(C#N)c1ccc(CC#N)cc1` (stereo unspecified), the TGI in the test with NCI-H522 lung, in the test with ACHN renal, with 786-0 renal, in the test with SNB-75 CNS, in the test with SF-539 CNS and with KM12 colon was over 100 µM each time.

Take `Cc1nc2cc(N)c(F)cc2[nH]1`: the TGI in the test on NCI-H522 lung, with ACHN renal, with 786-0 renal, in the test on OVCAR-5 ovarian, with SF-539 CNS and in the test on RXF 393 renal was over 100 µM each time. For the same compound, the TGI in the test on KM12 colon and in the test on COLO 205 colon was over 100 µM each time.
